In one experiment the target is T1, mouse TAAR1 (Mus musculus, UniProt Q923Y8).
T1 construct: expressed in transfected cells; host or cells: HEK293 (ATCC # CRL-1573), stably transfected with pIRESneo2 expression plasmid
T1 sequence (Q923Y8 whole entry): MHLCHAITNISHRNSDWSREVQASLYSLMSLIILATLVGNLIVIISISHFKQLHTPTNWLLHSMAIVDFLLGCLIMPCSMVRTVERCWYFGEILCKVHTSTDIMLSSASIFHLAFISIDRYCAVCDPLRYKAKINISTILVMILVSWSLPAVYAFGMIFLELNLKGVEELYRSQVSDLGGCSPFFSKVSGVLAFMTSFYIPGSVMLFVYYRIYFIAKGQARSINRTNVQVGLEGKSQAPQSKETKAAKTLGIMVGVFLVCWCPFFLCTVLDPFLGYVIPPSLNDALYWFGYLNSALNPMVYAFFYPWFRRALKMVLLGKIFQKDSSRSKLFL
As to the kind of experiment: Radioligand binding on membranes of HEK293 cells stably expressing TAAR1, [3H]-rac-2-(1,2,3,4-tetrahydro-1-naphthyl)-2-imidazoline. As to conditions: mouse TAAR1; radioligand at 60 nM; 4° C., 30 min incubation. As to the method: For the construction of expression plasmids the coding sequences of human, rat and mouse TAAR 1 were amplified from genomic DNA essentially as described by Lindemann et al.. The Expand High Fidelity PCR System (Roche Diagnostics) was used with 1.5 mM Mg^2+ and purified PCR products were cloned into pCR2.1-TOPO cloning vector (Invitrogen) following the instructions of the manufacturer. PCR products were subcloned into the pIRESneo2 vector (BD Clontech, Palo Alto, Calif.), and expression vectors were sequence verified before introduction in cell lines.
HEK293 cells (ATCC # CRL-1573) were cultured essentially as described Lindemann et al. (2005). For the generation of stably transfected cell lines HEK293 cells were transfected with the pIRESneo2 expression plasmids containing the TAAR coding sequences (described above) with Lipofectamine 2000 (Invitrogen) according to the instructions of the manufacturer, and 24 hrs post transfection the culture medium was supplemented with 1 mg/ml G418 (Sigma, Buchs, Switzerland). After a culture period of about 10 d clones were isolated, expanded and tested for responsiveness to trace amines (all compounds purchased from Sigma) with the cAMP Biotrak Enzyme immunoassay (EIA) System (Amersham) following the non-acetylation EIA procedure provided by the manufacturer.
Cells at confluence were rinsed with ice-cold phosphate buffered saline without Ca^2+ and Mg^2+ containing 10 mM EDTA and pelleted by centrifugation at 1000 rpm for 5 min at 4° C. The pellet was then washed twice with ice-cold phosphate buffered saline and cell pellet was frozen immediately by immersion in liquid nitrogen and stored until use at −80° C. Cell pellet was then suspended in 20 ml HEPES—NaOH (20 mM), pH 7.4 containing 10 mM EDTA, and homogenized with a Polytron (PT 3000, Kinematica) at 10,000 rpm for 10 s. The homogenate was centrifuged at 48,000×g for 30 min at 4° C. and the pellet resuspended in 20 ml HEPES—NaOH (20 mM), pH 7.4 containing 0.1 mM EDTA (buffer A), and homogenized with a Polytron at 10,000 rpm for 10 s. The homogenate was then centrifuged at 48,000×g for 30 min at 4° C. and the pellet resuspended in 20 ml buffer A, and homogenized with a Polytron at 10,000 rpm for 10 s. Protein concentration was determined by the method of Pierce (Rockford, Ill.). The homogenate was then centrifuged at 48,000×g for 10 min at 4° C., resuspended in HEPES—NaOH (20 mM), pH 7.0 including MgCl2 (10 mM) and […] homogenized with a Polytron at 10,000 rpm for 10 s.
Binding assay was performed at 4° C. in a final volume of 1 ml, and with an incubation time of 30 min. The radioligand [^3H]-rac-2-(1,2,3,4-tetrahydro-1-naphthyl)-2-imidazoline was used at a concentration equal to the calculated Kd value of 60 nM to give a bound at around 0.1% of the total added radioligand concentration, and a specific binding which represented approximately 70-80% of the total binding. Non-specific binding was defined as the amount of [^3H]-rac-2-(1,2,3,4-tetrahydro-1-naphthyl)-2-imidazoline bound in the presence of the appropriate unlabelled ligand (10 μM). Competing ligands were tested in a wide range of concentrations (10 pM-30 μM). […] Each experiment was performed in duplicate. All incubations were terminated by rapid filtration through UniFilter-96 plates (Packard Instrument Company) and glass filter GF/C, pre-soaked for at least 2 h in polyethylenimine 0.3%, and using a Filtermate 96 Cell Harvester (Packard Instrument Company). The tubes and filters were then washed 3 times with 1 ml aliquots of cold buffer B. Filters were not dried and soaked in Ultima gold (45 μl/well, Packard Instrument Company) and bound radioactivity was counted by a TopCount Microplate Scintillation Counter (Packard Instrument Company).
On to `Cc1cccc(C)c1N=C1NCCN1` [Example 2, (4,5-Dihydro-1H-imidazol-2-yl)-(2,6-dimethyl-phenyl)-amine or tautomer], for which affinity was put at a Ki of 0.149 µM.

Turning to `CCc1cccc(CC)c1NC1=NCCN1` [Example 3, (2,6-Diethyl-phenyl)-(4,5-dihydro-1H-imidazol-2-yl)-amine or tautomer], the Ki is 0.026 µM.

Take `Brc1cccc(Br)c1N=C1NCCN1` [Example 6, (2,6-Dibromo-phenyl)-imidazolidin-2-ylidene-amine or tautomer]: the Ki was determined as 0.501 µM.

`CCc1cccc(C)c1NC1=NCCN1` [Example 7, (4,5-Dihydro-1H-imidazol-2-yl)-(2-ethyl-6-methyl-phenyl)-amine or tautomer] showed an inhibition constant (Ki) of 0.169 µM.

Compound `Cc1cccc(C(C)C)c1NC1=NCCN1` [Example 8, (4,5-Dihydro-1H-imidazol-2-yl)-(2-isopropyl-6-methyl-phenyl)-amine or tautomer] displayed a Ki of 0.476 µM.

Take `Cc1ccc(Cl)cc1N=C1NCCN1` [Example 9, (5-Chloro-2-methyl-phenyl)-imidazolidin-2-ylidene-amine or tautomer]: the Ki was determined as 0.225 µM.

For the compound `O=C(CCc1ccc(NC2=NCCN2)cc1)c1ccc2ccccc2c1` [Example 11, 3-[4-(4,5-Dihydro-1H-imidazol-2-ylamino)-phenyl]-1-naphthalen-2-yl-propan-1-one ortautomer], the inhibition constant Ki turned out to be 0.121 µM.

Compound `c1ccc2c(N=C3NCCN3)cccc2c1` [Example 14, Imidazolidin-2-ylidene-naphthalen-1-yl-amineor tautomer] gave an inhibitory constant (Ki) of 0.036 µM.

In the case of `c1cc2c(c(NC3=NCCN3)c1)CCCC2` [Example 15, (4,5-Dihydro-1H-imidazol-2-yl)-(5,6,7,8-tetrahydro-naphthalen-1-yl)-amine or tautomer], the affinity corresponds to a Ki of 0.039 µM.

The compound `Cc1csc(Cl)c1NC1=NCCN1` [Example 16, (2-Chloro-4-methyl-thiophen-3-yl)-(4,5-dihydro-1H-imidazol-2-yl)-amine or tautomer] came in with a Ki of 0.294 µM.

The compound `Clc1cccc(Cl)c1SC1=NCCN1` [Example 18, 2-(2,6-Dichloro-phenylsulfanyl)-4,5-dihydro-1H-imidazole] showed a Ki of 0.03 µM.

The same experiment, now with this note: radioligand used in the TAAR1 binding assay; TAAR1 species not given; read-out: calculated Kd value of the radioligand.
Take `c1ccc2c(c1)CCCC2C1=NCCN1` (racemic) [[^3H]-rac-2-(1,2,3,4-tetrahydro-1-naphthyl)-2-imidazoline, reference compound]: the Kd is 60 nM.

A word on the Ki: it is a measure of affinity in units of concentration, obtained from inhibition or displacement. Higher therefore signals lower affinity. By Kd is commonly meant a measure of binding affinity in units of concentration.

Values taken from patent US20070197569A1, “Method for treating central nervous system disorders with substituted 2-imidazoline derivatives” (priority 2006, published 2007).
